# From ChEMBL document CHEMBL1201862, “PubChem BioAssay data set” (2004)
#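 Test compounds were applied to cells in 96-well plates for 48 hours at 5 doses. GI50 is the concentration that inhibits growth by half.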 Activity calls are given as the source filed them. Rule as the data show it: active = GI50 up to about 1.1 µM and inactive = higher.
# Tests used:
# Test in all cases: inhibition of tumour cell growth, NCI panel, 48 h
# CCRF-CEM = system: CCRF-CEM
# SK-MEL-5 = system: SK-MEL-5
# U-251 = system: U-251
# NCI-H522 = system: NCI-H522
# A549 = system: A549
# HCC 2998 = system: HCC 2998
# NCI-H23 = system: NCI-H23
# RXF 393 = system: RXF 393
# KM12 = system: KM12
# NCI-H226 = system: NCI-H226
# SR = system: SR
# OVCAR-3 = system: OVCAR-3
# UO-31 = system: UO-31
# CAKI-1 = system: CAKI-1
# EKVX = system: EKVX
# HL-60 = system: HL-60
# HOP-62 = system: HOP-62
# RPMI-8226 = system: RPMI-8226
# SF-539 = system: SF-539
# IGROV-1 = system: IGROV-1
SMILES,GI50 (CCRF-CEM),GI50 (SK-MEL-5),GI50 (U-251),GI50 (NCI-H522),GI50 (A549),GI50 (HCC 2998),GI50 (NCI-H23),GI50 (RXF 393),GI50 (KM12),GI50 (NCI-H226),GI50 (SR),GI50 (OVCAR-3),GI50 (UO-31),GI50 (CAKI-1),GI50 (EKVX),GI50 (HL-60),GI50 (HOP-62),GI50 (RPMI-8226),GI50 (SF-539),GI50 (IGROV-1)
Cc1ccc(S(=O)(=O)NCCSCCNS(=O)(=O)c2ccc(C)cc2)cc1,> 100 µM (inactive),> 100 µM (inactive),> 100 µM (inactive),> 100 µM (inactive),> 100 µM (inactive),> 100 µM (inactive),> 100 µM (inactive),> 100 µM (inactive),> 100 µM (inactive),> 100 µM (inactive),> 100 µM (inactive),> 100 µM (inactive),> 100 µM (inactive),,,,,,,
CC(C)OP(=O)(OC(C)C)c1ccc2c(c1)OCCOCCOCCOCCO2,> 100 µM (inactive),> 100 µM (inactive),,> 100 µM (inactive),> 100 µM (inactive),> 100 µM (inactive),> 100 µM (inactive),,> 100 µM (inactive),> 100 µM (inactive),> 100 µM (inactive),,> 100 µM (inactive),> 100 µM (inactive),> 100 µM (inactive),> 100 µM (inactive),> 100 µM (inactive),> 100 µM (inactive),> 100 µM (inactive),> 100 µM (inactive)
COc1cc2oc(-c3ccc(O)cc3)cc(=O)c2c(O)c1C1OC(CO)C(O)C(O)C1O (configuration not stated),> 100 µM (inactive),> 100 µM (inactive),> 100 µM (inactive),> 100 µM (inactive),> 100 µM (inactive),> 100 µM (inactive),> 100 µM (inactive),,> 100 µM (inactive),> 100 µM (inactive),> 100 µM (inactive),> 100 µM (inactive),> 100 µM (inactive),> 100 µM (inactive),> 100 µM (inactive),> 100 µM (inactive),> 100 µM (inactive),> 100 µM (inactive),> 100 µM (inactive),> 100 µM (inactive)
CCCCCCCCCC/C=C/C=O,> 100 µM (inactive),> 100 µM (inactive),> 100 µM (inactive),> 100 µM (inactive),> 100 µM (inactive),> 100 µM (inactive),> 100 µM (inactive),> 100 µM (inactive),> 100 µM (inactive),,> 100 µM (inactive),> 100 µM (inactive),> 100 µM (inactive),,> 100 µM (inactive),56.1 µM (inactive),,,> 100 µM (inactive),> 100 µM (inactive)
CC1(C)C[C@H]2C=C(C=O)[C@]34C[C@]3(C(=O)OC4O)[C@H]2C1 (some centres not stated),0.813 µM (active),1.63 µM (inactive),8.77 µM (inactive),0.443 µM (active),2.83 µM (inactive),2.95 µM (inactive),1.66 µM (inactive),,1.94 µM (inactive),6.61 µM (inactive),2.56 µM (inactive),2.84 µM (inactive),1.83 µM (inactive),1.59 µM (inactive),1.61 µM (inactive),1.92 µM (inactive),14.2 µM (inactive),4.54 µM (inactive),1.68 µM (inactive),3.05 µM (inactive)
O=C(O)CN1C(=O)OC(c2ccccc2)C1=O (configuration not stated),> 100 µM (inactive),> 100 µM (inactive),> 100 µM (inactive),> 100 µM (inactive),> 100 µM (inactive),,> 100 µM (inactive),> 100 µM (inactive),> 100 µM (inactive),> 100 µM (inactive),> 100 µM (inactive),> 100 µM (inactive),> 100 µM (inactive),> 100 µM (inactive),> 100 µM (inactive),> 100 µM (inactive),> 100 µM (inactive),> 100 µM (inactive),> 100 µM (inactive),> 100 µM (inactive)
COc1cccc(Nc2nc(-c3cccs3)nc3ccc(Br)cc23)c1,0.0101 µM (active),55.5 µM (inactive),35.5 µM (inactive),> 100 µM (inactive),76.4 µM (inactive),,46 µM (inactive),,74 µM (inactive),78 µM (inactive),1.48 µM (inactive),36.6 µM (inactive),> 100 µM (inactive),33.7 µM (inactive),> 100 µM (inactive),> 100 µM (inactive),20 µM (inactive),1.67 µM (inactive),94.2 µM (inactive),> 100 µM (inactive)
COc1ccc(Nc2nc3ccccc3nc2-c2cccs2)cc1,> 100 µM (inactive),65.3 µM (inactive),> 100 µM (inactive),59.4 µM (inactive),80.4 µM (inactive),75 µM (inactive),> 100 µM (inactive),> 100 µM (inactive),> 100 µM (inactive),> 100 µM (inactive),55 µM (inactive),> 100 µM (inactive),> 100 µM (inactive),> 100 µM (inactive),> 100 µM (inactive),17.5 µM (inactive),69.7 µM (inactive),,> 100 µM (inactive),> 100 µM (inactive)
COc1ccc2cc(/C=N\NC(=O)Nc3cccc4ccccc34)ccc2c1,21.3 µM (inactive),37.3 µM (inactive),16.4 µM (inactive),80 µM (inactive),> 100 µM (inactive),> 100 µM (inactive),24.3 µM (inactive),38.5 µM (inactive),67 µM (inactive),28.2 µM (inactive),16.1 µM (inactive),,87.3 µM (inactive),23.8 µM (inactive),30.6 µM (inactive),> 10 µM (inactive),15.3 µM (inactive),,30.5 µM (inactive),66.1 µM (inactive)
COc1cc(C2c3cc(OC)c(OC)c(O)c3C(=O)C3CCC(=O)N32)cc(OC)c1OC (configuration not stated),,53.1 µM (inactive),86.7 µM (inactive),26 µM (inactive),> 100 µM (inactive),> 100 µM (inactive),,,48.2 µM (inactive),10.9 µM (inactive),89.7 µM (inactive),34.1 µM (inactive),,> 100 µM (inactive),> 100 µM (inactive),26.4 µM (inactive),> 100 µM (inactive),28.8 µM (inactive),> 100 µM (inactive),> 100 µM (inactive)
CC(=O)N1OC(C)CC1Nc1ccc(Br)cc1 (configuration not stated),0.452 µM (active),6.31 µM (inactive),1.99 µM (inactive),,9.12 µM (inactive),3.05 µM (inactive),> 100 µM (inactive),> 100 µM (inactive),1.44 µM (inactive),4.39 µM (inactive),1.42 µM (inactive),82.4 µM (inactive),0.0955 µM (active),,> 100 µM (inactive),1.95 µM (inactive),0.366 µM (active),,5.77 µM (inactive),> 100 µM (inactive)
C1CCC(OCc2nnn3c2CCC3)OC1 (configuration not stated),> 100 µM (inactive),> 100 µM (inactive),> 100 µM (inactive),> 100 µM (inactive),> 100 µM (inactive),> 100 µM (inactive),> 100 µM (inactive),> 100 µM (inactive),> 100 µM (inactive),,> 100 µM (inactive),> 100 µM (inactive),> 100 µM (inactive),,> 100 µM (inactive),> 100 µM (inactive),> 100 µM (inactive),,> 100 µM (inactive),> 100 µM (inactive)
N/C(S)=N/N=C/c1ccc(O)cn1,1.78 µM (inactive),5.65 µM (inactive),6.18 µM (inactive),,47.6 µM (inactive),13.6 µM (inactive),6.11 µM (inactive),,11.1 µM (inactive),24.2 µM (inactive),1.64 µM (inactive),3.52 µM (inactive),10.6 µM (inactive),,14.5 µM (inactive),4.12 µM (inactive),4.59 µM (inactive),10.7 µM (inactive),2.26 µM (inactive),21.3 µM (inactive)
CCOC(=O)/C(=N/Nc1ccccc1)N1C(=S)N(C)N=C(C)C=C1S,> 100 µM (inactive),> 100 µM (inactive),20 µM (inactive),27 µM (inactive),> 100 µM (inactive),> 100 µM (inactive),33.9 µM (inactive),0.465 µM (active),> 100 µM (inactive),,> 100 µM (inactive),> 100 µM (inactive),> 100 µM (inactive),> 100 µM (inactive),> 100 µM (inactive),> 100 µM (inactive),,> 100 µM (inactive),> 100 µM (inactive),> 100 µM (inactive)
COc1cccc(C2SC(=N)Nc3c2c(C)nn3C(=O)Cc2ccccc2)c1 (configuration not stated),> 100 µM (inactive),> 100 µM (inactive),,> 100 µM (inactive),> 100 µM (inactive),> 100 µM (inactive),> 100 µM (inactive),,> 100 µM (inactive),> 100 µM (inactive),> 100 µM (inactive),,> 100 µM (inactive),> 100 µM (inactive),> 100 µM (inactive),> 100 µM (inactive),> 100 µM (inactive),> 100 µM (inactive),> 100 µM (inactive),> 100 µM (inactive)
COCCOc1nc(-c2ccccc2)nc2ccccc12,,25.8 µM (inactive),45.8 µM (inactive),35.3 µM (inactive),37.3 µM (inactive),,61.8 µM (inactive),11.7 µM (inactive),30 µM (inactive),,19.7 µM (inactive),95.1 µM (inactive),38.6 µM (inactive),34.7 µM (inactive),55.8 µM (inactive),29.2 µM (inactive),22.1 µM (inactive),15.7 µM (inactive),48.8 µM (inactive),98.2 µM (inactive)
